Results on five molecules are retold here after patent US20200268753A1, “PERK AND IRE-1A INHIBITORS AGAINST NEURODEVELOPMENTAL DISORDERS” (priority 2017, published 2020).

Each structure is given as a SMILES string.

The test system of assay [1] is UPR effectors (PERK-ATF4 arm, IRE-1/Xbp1). As to the kind of experiment: qRT-PCR of UPR effector expression levels in ZIKV-infected embryonic mouse brains. The assay is classed as in vivo. The source says: (§1) To test the efficacy of Salubrinal and ISRIB (PERK inhibitors) in decreasing the expression levels of UPR effectors after ZIKV infection we intracerebroventricularly injected ZIKV+Salubrinal (or ISRIB) in E12.5 mouse cortices and collected brains at E18.5. These samples were stored in Trizol (Invitrogen) and RNA was extracted according to manufacturer instructions. RNA was then retro-transcribed and cDNA was used to perform qRT-PCR to quantify ZIKV and UPR effectors levels in each sample. […] The expression levels of several PERK pathway effectors were analyzed: mATF4 (FIG. 6B), mATF5 (FIG. 6C), mCHAC1 (FIG. 6D). […] (Kruskal-Wallis test, *p<0.05, ** p<0.005).
(§2) To test the efficacy of Resveratrol (IRE1a inhibitor) in decreasing the expression levels of UPR effectors after ZIKV infection we intracerebroventricularly injected ZIKV+Resveratrol in E12.5 mouse cortices and collected brains at E18.5. These samples were stored in Trizol (Invitrogen) and RNA was extracted according to manufacturer instructions. RNA was then retro-transcribed and cDNA was used to perform qRT-PCR to quantify ZIKV and UPR effectors levels in each sample. […] The expression levels of several PERK pathway effectors were analyzed: mATF4 (FIG. 7B), mATF3 (FIG. 7C), mXbp1 spliced/unspliced and mXbp1 tot (FIG. 7D), mChop (FIG. 7E).
Total RNA was obtained from micro-dissected embryonic mouse brains, and neuronal progenitors seeded in 6 well-plate culture dishes after application of Trizol according to the manufacturer's protocol (Ambion-Life Technologies, 15596018).
The quantity and quality of RNA were assessed by NanoDrop 1000 (Nano-Drop Technologies) before cDNA synthesis by SuperScript III reverse transcriptase (Invitrogen), as used according to the manufacturer's instructions. The resulting cDNA was used for quantitative PCR, using Faststart Universal SYBR Green Master (Roche) in an Applied Biosystem 7900HT Fast Real-Time PCR detection system (Applied Biosystems, Foster city, USA). The following genes of interest (GOI) were normalized to the reference genes β-actin, Glyceraldehyde-3-Phosphate dehydrogenase (GAPDH), hypoxanthine phosphoribosyltransferase 1 (HPRT1), and 36b4 ribosomal protein (36b4). Tested genes were GAPDH, HPRT1, 36B4, ACTIN, ZIKA, Atf4, Atf3, Atf5, Chac1, Chop, Sesn2, Tbr2, Neurod6, Tubb3, hPDI, Slc7a3, MX1, TLR3, HRD1, OCT4, NESTIN, PAX6, SOX1 and mPDI.
On the technique in general: Real-time PCR tracks product formation cycle by cycle.

Assay [2] relates to ZIKV. Description: ZIKV-induced microcephaly and apoptosis after intracerebroventricular injection in mouse embryos (E12.5, analysed E18.5). It counts as in vivo. The conditions noted are these: for ZIKV-induced microcephaly / microcephalic phenotype: injected with ZIKV ICV at E12.5, E18.5 brains, vs vehicle.
In assay [3] the test system is ZIKV. As to the kind of experiment: qRT-PCR quantification of ZIKV copies in ICV-injected embryonic mouse brains. The assay is classed as in vivo. Conditions: for number of ZIKV copies: ICV co-injection with ZIKV at E12.5, brains at E18.5, vs ZIKV+DMSO, Kruskal-Wallis test.
Source text: as §1, §2
The number of Zika particles in the samples analyzed by qRT-PCR (see above) was calculated as previously described (Lanciotti et al, 2008). Briefly, a standard curve was created by performing serial dilutions of a plasmid containing 76-bp long sequence from the Zika genome (from nt 1,086 to 1,162; GCF_000882815.3, as indicated in Nature Neurosciences (2018) Gladwyn et al.) and querying these dilutions by qRT-PCR analysis.
This standard curve allows the conversion of Cp of samples queried for Zika virus (as described above) into N^o of Zika copies/a L. We used the following formula to link this quantification to the amount of RNA retrotranscribed for the analysis of each sample: […]
Finally, the N^o of copies/μg RNA was divided for the relative concentration of each sample analyzed by qRT-PCR (since for each analyzed gene in this study we performed a relative quantification compared to the controls of the same experiment). The relative concentration of each sample is automatically calculated by the LightCycler480 and its accompanying software.

In assay [4] the test system is ZIKV. As to the kind of experiment: Neurogenic balance after intracerebroventricular ZIKV injection and in utero GFP electroporation of mouse embryos. It counts as in vivo. The conditions noted are these: co-administered with ZIKV ICV at E12.5, second injection at electroporation; E14.5; vs Mock-DMSO and Mock-PERKi. How it is done:
To test whether the deregulation of UPR induced by ZIKV-infection results in the impairment of this neurogenic balance, we performed ICV injection of ZIKV in E12.5 mouse brains, followed by in utero electroporation of GFP-expressing plasmids one day later to fate-map APs at E14.5 (APs, immature IPs and IPs, neurons) (FIGS. 3A-B). The phenotype of the “direct progeny” of targeted APs was then assessed by immunohistochemistry (FIGS. 3B-D). In order to characterize the fate of GFP+ cells, we subdivided them into APs (Sox2+, Tbr2− or Tbr2−, Tbr1−), immature IPs (Sox2+, Tbr2+ or Tbr2+, Tbr1−), IPs (Sox2−, Tbr2+ or Tbr2+, Tbr1+), or neurons (Sox2−, Tbr2− or Tbr2−, Tbr1+).
To assess if ZIKV directly impacts the neurogenic balance through UPR deregulation in GFP labeled APs, we co-injected GSK2656157 (a PERK inhibitor, named PERKi) with ZIKV into the lateral ventricles of E12.5 embryos and repeated a second PERKi injection at the time of electroporation.
Embryonic (E) 14.5, E16.5 and E18.5 mouse brains were dissected in 0.1M phosphate-buffered saline pH7.4 (PBS), and were fixed in 4% paraformaldehyde (PFA in PBS) for one hour at room temperature, whereas human neural stem cells (hNSCs) were fixed in 4% PFA at 4° C. for 10 minutes. […]

The subject of assay [5] is ZIKV. As to the kind of experiment: Intraplacental (IPL) ZIKV injection in pregnant NMRI mice, cortical defects at E18.5. It counts as in vivo, mouse. Conditions: intraplacental ZIKV at E12.5, co-injection.
Where [6] appears, read: high doses, ICV co-injection with ZIKV at E12.5, brains at E18.5, vs ZIKV+DMSO.
[7] abbreviates: ZIKV ICV at E12.5, E18.5, compared to vehicle treatment.
Setting [8] is: single injection of 50M at time of infection (E12.5), E18.5.

In the case of `Cc1cc(=O)oc2c(C=O)c(O)ccc12` [4μ8C], in assay [1] (ZIKV-infected mouse brains), the “activation of the PERK-ATF4 UPR arm” value is “prevented activation”. Also, the “ZIKV-induced microcephaly / microcephalic phenotype” value with ZIKV [2] is listed as “rescued the microcephalic phenotype”.
`O=C(COc1ccc(Cl)cc1)NC1CCC(NC(=O)COc2ccc(Cl)cc2)CC1` (centres unmarked) [ISRIB]: in assay [1] (setting [6]), the mATF4 expression level entry was “marked decrease”, the mATF5 expression level entry was “marked decrease” and the mCHAC1 expression level result is “marked decrease”. In addition, the “number of ZIKV copies” value in the assay with ZIKV [3] is “unaffected compared to controls”.
For `Cc1cccc(CC(=O)N2CCc3c2ccc(-c2cn(C)c4ncnc(N)c24)c3F)n1` [PERKi], the “imbalance between direct and indirect neurogenesis (proportions of APs, newborn IPs, IPs and neurons)” value with ZIKV [4] is “remarkably corrected the imbalance between direct and indirect neurogenesis”. In addition, the “ZIKV-induced cortical defects (cortical thickness, neuronal apoptosis, cytoarchitecture)” value in the assay with ZIKV [5] is “rescued”. Also, the ZIKV particles result in the assay on ZIKV [3] (ZIKV-infected mouse brains treated with PERKi) is reported as “not associated with a reduction”. In the assay with ZIKV [2] (setting [7]), the brain weight result is reported as “significant improvement”; the “cortical dimensions (brain width, length)” value is on record as “significant improvement”; the “numbers of neurons sitting in different cortical layers” value is listed as “significant improvement”. Further, the “ZIKV-induced microcephaly / microcephalic phenotype” value with ZIKV [2] is recorded as “reduced ZIKV-induced microcephaly”. In the assay with ZIKV [2] (setting [8]), the ER stress entry is recorded as “decreased” and the “apoptosis (ac-caspase 3)” value was “decreased”.
Regarding `Oc1ccc(C=Cc2cc(O)cc(O)c2)cc1` [Resveratrol], in assay [1] (setting [6]), the mATF3 expression level entry is reported as “marked decrease”, the mATF4 expression level entry was “marked decrease” and the mChop expression level result is “marked decrease”. Also, the “number of ZIKV copies” value in the assay on ZIKV [3] is “unaffected compared to controls”.
For the molecule `O=C(/C=C/c1ccccc1)NC(NC(=S)Nc1cccc2cccnc12)C(Cl)(Cl)Cl` (centres unmarked) [Salubrinal], in assay [1] (setting [6]), the mATF4 expression level result is “marked decrease”, the mATF5 expression level entry was “marked decrease” and the mCHAC1 expression level result is on record as “marked decrease”. In addition, the “number of ZIKV copies” value with ZIKV [3] is “unaffected compared to controls”.
